Patent US11396517B1, “Exo-aza spiro inhibitors of menin-MLL interaction” (Janssen Pharmaceutica NV, priority 2017, dated 2022)
Where two headings read alike, the source gives them in different places.

Columns and labels:
menin = target: T1, menin (Homo sapiens, UniProt O00255, T541A); test: Menin/MLL homogenous time-resolved fluorescence (HTRF) assay; type: binding
T1 construct: Menin (a.a. 1-610-6×his tag)
T1 sequence (O00255 with tags, fused parts or gaps T541A): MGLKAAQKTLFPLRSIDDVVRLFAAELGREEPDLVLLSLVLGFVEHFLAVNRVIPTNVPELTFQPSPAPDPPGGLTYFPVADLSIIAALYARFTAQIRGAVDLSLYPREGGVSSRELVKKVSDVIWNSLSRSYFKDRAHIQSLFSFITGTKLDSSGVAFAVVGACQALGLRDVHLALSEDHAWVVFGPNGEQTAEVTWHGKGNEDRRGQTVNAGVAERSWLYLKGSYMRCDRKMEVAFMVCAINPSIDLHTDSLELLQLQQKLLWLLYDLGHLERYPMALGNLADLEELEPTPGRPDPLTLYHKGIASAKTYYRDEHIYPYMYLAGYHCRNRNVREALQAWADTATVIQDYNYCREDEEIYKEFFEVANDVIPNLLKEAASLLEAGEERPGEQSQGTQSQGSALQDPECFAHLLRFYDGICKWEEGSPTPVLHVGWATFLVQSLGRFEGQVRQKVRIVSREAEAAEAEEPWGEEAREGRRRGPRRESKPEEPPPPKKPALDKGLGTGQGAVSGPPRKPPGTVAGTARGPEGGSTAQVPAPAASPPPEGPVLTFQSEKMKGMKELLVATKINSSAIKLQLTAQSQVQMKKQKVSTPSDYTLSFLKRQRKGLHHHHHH
Method in brief: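 Displacement of 75 nM FITC-MBM1 from terbium-cryptate-labeled His-tagged menin 1-610 ([…]) was read as the 520/490 nm HTRF ratio. Compound (11-point, 3-fold series) got 5 min with menin before peptide, then 15 min at ambient; 0.5% DMSO, Tris pH 7.5.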

MOLM14 = test: Proliferation assay B (spheroid assay) MOLM14; type: cell-based, human; conditions: MOLM14 cells, confluence at day 8, absolute IC50, read-out: (3b) Spheroid assay MOLM14 (IC50(μM)) Assay B
Protocol: 3b) Proliferation Assay B
The anti-proliferative effect of menin/MLL protein/protein interaction inhibitor test compounds was assessed in human leukemia cell lines. The cell lines MV-4-11 and MOLM14 harbor MILL translocations and express the MILL fusion proteins MLL-AF4 and MLL-AF9, respectively, as well as the wildtype protein from the second allele. […] K562 was used as a control cell line containing two MLL wildtype alleles in order to exclude compounds that display general cytotoxic effects.
MV-4-11 and MOLM14 were cultured in RPMI-1640 (Sigma Aldrich) supplemented with 10% fetal bovine serum (HyClone), 2 mM L-glutamine (Sigma Aldrich) and 50 μg/ml gentamycin (Gibco). K562 were propagated in RPMI-1640 (Sigma Aldrich) supplemented with 20% fetal bovine serum (HyClone), 2 mM L-glutamine (Sigma Aldrich) and 50 μg/ml gentamycin (Gibco).
In order to assess the anti-proliferative effects, 1,500 MV-4-11, 300 MOLM14 cells or 750 K562 cells were seeded in 200 μl media per well in 96-well round bottom, ultra-low attachment plates (Costar, catalogue number 7007). Cell seeding numbers were chosen based on growth curves to ensure linear growth throughout the experiment. Test compounds were added at different concentrations and the DMSO content was normalized to 0.3%. Cells were incubated for 8 d at 37° C. and 5% CO2. Spheroid like growth was measured in real-time by live-cell imaging (IncuCyteZOOM, Essenbio, 4× objective) acquiring images at day 8. Confluence (%) as a measure of spheroid size was determined using an integrated analysis tool.
In order to determine the effect of the test compounds over time, the confluence in each well as a measure of spheroid size, was calculated. Confluence […] at the beginning of the experiment (t=0) was used as baseline for the calculation.
Absolute IC50 values were calculated as percent change in confluence as follows:
LC=Low Control: cells treated with 1 μM of the cytotoxic agent staurosporin
HC=High Control: Mean confluence (%) (DMSO treated cells) % Effect=100−(100*(Sample−LC)/(HC−LC))
To determine the IC50 a curve is fitted to the plot of % Effect vs Log 10 compound concentration using a sigmoidal fit with a variable slope and fixing the maximum to 100% and the minimum to 0%.

[1] = location 2, read-out: (2) location 2 Menin HTRF assay (IC50 (nM))

Structure (SMILES) | IC50 (menin; [1]) | IC50 (MOLM14; Homo sapiens, MOLM-14, 192 h) | IC50 (MOLM14) | IC50 (menin; location 1, read-out: (2) location 1 Menin HTRF assay (IC50 (nM)))
N#Cc1ccc(NC2CC3(CCN(c4ncnc5sc(CC(F)(F)F)cc45)C3)C2)cn1 (mixture of isomers) [Compound 176] | 18.7 nM | 1.55 µM | – | –
CN(C)CCN(C)C(=O)c1ccc(NC2CC3(CCN(c4ncnc5sc(CC(F)(F)F)cc45)C3)C2)cc1 (mixture of isomers) [Compound 180] | 43.4 nM | > 3.75 µM | – | –
CC(CN1CCN(S(C)(=O)=O)CC1)NC(=O)c1ccc(NC2CC3(CCN(c4ncnc5sc(CC(F)(F)F)cc45)C3)C2)cc1 (mixture of isomers) [Compound 192] | 13.1 nM | 1 µM | – | –
O=c1[nH]c2ccc(NCC3CC4(CCN(c5ncnc6sc(CC(F)(F)F)cc56)C4)C3)cc2[nH]1 (mixture of isomers) [Compound 198] | 141 nM | > 3.75 µM | – | –
CNC(=O)c1ccc(NC2CC3(CCN(c4ncnc5sc(CC(F)(F)F)cc45)C3)C2)cc1Cl (mixture of isomers) [Compound 214] | 9.4 nM | > 3.75 µM | – | –
CS(=O)(=O)N1CCN(CCn2c(=O)[nH]c3ccc(NC4CC5(CCN(c6ncnc7sc(CC(F)(F)F)cc67)C5)C4)cc32)CC1 (mixture of isomers) [Compound 221] | 4000 nM | > 3.75 µM | – | –
CS(=O)(=O)N1CCN(CCn2c(=O)[nH]c3cc(NC4CC5(CCN(c6ncnc7sc(CC(F)(F)F)cc67)C5)C4)ccc32)CC1 (mixture of isomers) [Compound 222] | 418 nM | > 3.75 µM | – | –
CNC(=O)c1ccc(NC2CC3(CCN(c4ncnc5sc(CC(F)(F)F)cc45)C3)C2)cc1CCCN(C)C (mixture of isomers) [Compound 236] | 80 nM | > 3.75 µM | – | –
CN1CCC(COc2cc(NC3CC4(CCN(c5ncnc6sc(CC(F)(F)F)cc56)C4)C3)ccc2C#N)CC1 (mixture of isomers) [Compound 241] | 114 nM | 2.64 µM | – | –
CNc1nc(N2CCC3(CC(Nc4ccc5c(c4)oc(=O)n5CCN4CCN(S(C)(=O)=O)CC4)C3)C2)c2cc(CC(F)(F)F)sc2n1 (mixture of isomers) [Compound 250] | 146 nM | > 3.75 µM | – | –
CNC(=O)c1cnc(NC2CC3(CCN(c4ncnc5sc(CC(F)(F)F)cc45)C3)C2)nc1 (mixture of isomers) [Compound 257] | 10.6 nM | > 3.75 µM | – | –
CS(=O)(=O)Cc1ccc(NC2CC3(CCN(c4ncnc5sc(CC(F)(F)F)cc45)C3)C2)cc1 (mixture of isomers) [Compound 344] | 13.4 nM | > 3.75 µM | – | –
O=C1OCCN1Cc1ccc(NC2CC3(CCN(c4ncnc5sc(CC(F)(F)F)cc45)C3)C2)cc1 (mixture of isomers) [Compound 347] | 9.1 nM | 3.18 µM | – | –
NC(=O)Cc1ccc(NC2CC3(CCN(c4ncnc5sc(CC(F)(F)F)cc45)C3)C2)cc1 (mixture of isomers) [Compound 348] | 14.5 nM | > 3.75 µM | – | –
CS(=O)(=O)N1CCN(CCn2c(=O)oc3ccc(CNC4CC5(CCN(c6ncnc7sc(CC(F)(F)F)cc67)C5)C4)cc32)CC1 (mixture of isomers) [Compound 349] | 19.3 nM | > 3.75 µM | – | –
FC(F)(F)Cc1cc2c(N3CCC4(CC(Nc5ccc(CN6CCOCC6)cc5)C4)C3)ncnc2s1 (mixture of isomers) [Compound 350] | 21.1 nM | 3.55 µM | – | –
CS(=O)(=O)N1CCN(Cc2ccc(NC3CC4(CCN(c5ncnc6sc(CC(F)(F)F)cc56)C4)C3)cc2)CC1 (mixture of isomers) [Compound 351] | 15.5 nM | 3.51 µM | – | –
Nc1nc(N2CCC3(CC(Nc4ccc5[nH]c(=O)[nH]c5c4)C3)C2)c2cc(CC(F)(F)F)sc2n1 (mixture of isomers) [Compound 381] | 9.4 nM | > 3.75 µM | – | –
CN1CCC(c2cc(NC3CC4(CCN(c5ncnc6sc(CC(F)(F)F)cc56)C4)C3)ccc2C#N)CC1 (single isomer, unassigned) [Compound 80] | 8.7 nM | – | 0.95 µM | –
COCCNC(=O)c1ccc(NC2CC3(CCN(c4ncnc5sc(CC(F)(F)F)cc45)C3)C2)cc1 (single isomer, unassigned) [Compound 86] | 91.8 nM | > 3.75 µM | – | –
Cn1c(=O)[nH]c2cc(NC3CC4(CCN(c5ncnc6sc(CC(F)(F)F)cc56)C4)C3)ccc21 (single isomer, unassigned) [Compound 90] | 20.2 nM | 0.85 µM | – | –
CS(=O)(=O)N[C@H]1CC[C@H](NC2CC3(CCN(c4ncnc5sc(CC(F)(F)F)cc45)C3)C2)CC1 (single isomer, unassigned) [Compound 103] | 1200 nM | > 3.75 µM | – | 1160 nM
N#Cc1ccc(NC2CC3(CCN(c4ncnc5sc(CC(F)(F)F)cc45)C3)C2)nc1 (single isomer, unassigned) [Compound 174] | – | – | 2.94 µM | –
N#Cc1ccc(NC2CC3(CCN(c4ncnc5sc(CC(F)(F)F)cc45)C3)C2)nc1 (single isomer, unassigned) [Compound 175] | 33.4 nM | – | 1.09 µM | –

The remaining compounds from weak to strong by IC50 (menin; [1]), led by results:

IC50 (menin; [1]) | IC50 (MOLM14; Homo sapiens, MOLM-14, 192 h) | IC50 (MOLM14) | IC50 (menin; location 1, read-out: (2) location 1 Menin HTRF assay (IC50 (nM))) | Structure (SMILES)
7.9 nM | 1.22 µM | – | – | CC(NC(=O)c1ccc(NC2CC3(CCN(c4ncnc5sc(CC(F)(F)F)cc45)C3)C2)cc1)C1CCN(S(C)(=O)=O)CC1 (mixture of isomers) [Compound 191]
7.3 nM | 2.11 µM | – | – | O=C1NCCN1c1ccc(NC2CC3(CCN(c4ncnc5sc(CC(F)(F)F)cc45)C3)C2)cc1 (mixture of isomers) [Compound 346]
7.1 nM | 2.47 µM | – | – | CS(=O)(=O)N1CCC(C#N)(c2ccc(NC3CC4(CCN(c5ncnc6sc(CC(F)(F)F)cc56)C4)C3)cc2)CC1 (mixture of isomers) [Compound 340]
6.8 nM | 2.33 µM | – | – | O=C1OCCN1c1ccc(NC2CC3(CCN(c4ncnc5sc(CC(F)(F)F)cc45)C3)C2)cc1 (mixture of isomers) [Compound 345]
4.9 nM | > 3.75 µM | – | – | CS(=O)(=O)Nc1ccc(NC2CC3(CCN(c4ncnc5sc(CC(F)(F)F)cc45)C3)C2)cc1 (mixture of isomers) [Compound 343]
4.8 nM | > 3.75 µM | – | – | CS(=O)(=O)c1ccc(NC2CC3(CCN(c4ncnc5sc(CC(F)(F)F)cc45)C3)C2)cc1 (mixture of isomers) [Compound 342]
4.2 nM | 0.46 µM | – | – | CC(CN(C)C)NC(=O)c1ccc(NC2CC3(CCN(c4ncnc5sc(CC(F)(F)F)cc45)C3)C2)cc1 (mixture of isomers) [Compound 193]
3.8 nM | 0.99 µM | – | – | O=C(NCCN1CCOCC1)c1ccc(NC2CC3(CCN(c4ncnc5sc(CC(F)(F)F)cc45)C3)C2)cc1 (single isomer, unassigned) [Compound 88]
2 nM | – | 2.54 µM | – | CNC(=O)c1ccc(NC2CC3(CCN(c4ncnc5sc(CC(F)(F)F)cc45)C3)C2)cc1 (mixture of isomers) [Compound 329]
1.7 nM | – | 0.69 µM | – | CNC(=O)c1ccc(NC2CC3(CCN(c4ncnc5sc(CC(F)(F)F)cc45)C3)C2)c(Cl)c1 (single isomer, unassigned) [Compound 69]
